Experimental findings from patent US10183952B2, “Thienopyrroles as histone demethylase inhibitors” (ISTITUTO EUROPEO DI ONCOLOGIA S.R.L., priority 2014, dated 2019) are described below.

Counter-ions that a name gives are not always drawn.

What is called IC50 is the concentration needed to halve the response being measured.

The subject of assay [1] is human leukemia MV4-11 cells. Nature of the assay: Cell growth, CellTiter-Fluor Cell Viability Assay, MV4-11. Format: cell-based. The conditions noted are these: 48 h incubation, read-out: IC50 against human leukemia MV4-11 cells. An excerpt:
(§1) The CellTiter-Fluor™ Cell Viability Assay measures the conserved and constitutive protease activity within live cells and therefore acts as a marker for cell viability.
(§2) CellTiter-Flor® (Promega) is as a nonlytic, single-reagent-addition fluorescence assay that measures the relative number of living cells in a culture population after experimental manipulation. The CellTiter-Fluor™ Cell Viability Assay measures the conserved and constitutive protease activity within live cells and therefore acts as a marker for cell viability.
(§3) Human leukemia MV4-11 cells, (obtained from the Deutsche Sammlung von Mikroorganismen und Zellkulturen, ACC 102) or NB4 cells, (obtained from the Deutsche Sammlung von Mikroorganismen und Zellkulturen) in exponential growth, were incubated for 48 h with different concentrations of the inhibitors. After 48 h a volume of CellTiter-Fluor® Reagent equal to one fifth of volume of cell culture medium was added. The content was mixed and incubates for at least 90 min at 37° C. degree to obtain a stable signal. The fluorescence was recorded using an excitation wavelength of 360 nm and an emission at 535 nm. The IC50 was calculated using GraphPad Software.

A further assay deals with human leukemia NB4 cells. Nature of the assay: Cell growth, CellTiter-Fluor Cell Viability Assay, NB4. As to conditions: NB-4, 48 h incubation, read-out: IC50 against human leukemia NB4 cells. The assay is classed as cell-based.
From the text: as §1, §2, §3

Assay [2] concerns the target human recombinant KDM1A/CoREST protein (Homo sapiens, UniProt O60341). Kind of assay: Assay of enzyme inhibition of KDM1A (LSD1), TR-FRET.
Experimental: The intensity of the light emission is proportional to the level of biotinylated reaction product. The complex of human recombinant KDM1A/CoREST protein was produced in E. coli as separate proteins and co-purified as previously described.
Demethylase reaction was started by the addition of 50 nM histone H3K4 monomethylated.
The resulting mixture was incubated in the dark for 1 h at RT.

On to `Cn1c(C(=O)Nc2ccccc2CCc2ccc(OC3CCNCC3)cc2)cc2sccc21` [Example 61, 4-Methyl-N-[2-[2-[4-(4-piperidyloxy)phenyl]ethyl]phenyl]thieno[3,2-b]pyrrole-5-carboxamide hydrochloride], for which the 50% inhibitory concentration (IC50) in assay [1] is < 10 µM; in the assay on human leukemia NB4 cells, < 20 µM; in assay [2] it was < 10 µM.
Consider `Cn1c(C(=O)Nc2ccccc2COc2ccc(OCC3CCNCC3)cc2)cc2sccc21` [Example 2, 4-methyl-N-[2-[[4-(4-piperidylmethoxy)phenoxy]methyl]phenyl]thieno-[3,2-b]pyrrole-5-carboxamide], for which the results for the IC50 (in assay [1]; with human leukemia NB4 cells; in assay [2]) were < 10 µM, < 20 µM and < 10 µM, respectively.
Turning to `Cn1c(C(=O)Nc2cccc(COc3ccc(OC4CCNCC4)cc3)c2)cc2sccc21` [Example 10, 4-methyl-N-[3-[[4-(4-piperidyloxy)phenoxy]methyl]phenyl]thieno[3,2-b]pyrrole-5-carboxamide], the results for the IC50 (in assay [1]; in the assay on human leukemia NB4 cells; in assay [2]) were < 10 µM, < 20 µM and < 10 µM, respectively.
For `COCc1cccc(NC(=O)c2cc3sccc3n2C)c1COc1ccc(OC[C@H]2CCNC2)cc1` [Example 49, N-[3-(Methoxymethyl)-2-[[4-[[(3S)-pyrrolidin-3-yl]methoxy]phenoxy]methyl]phenyl]-4-methyl-thieno[3,2-b]pyrrole-5-carboxamide hydrochloride], the IC50 was < 10 µM in assay [1], < 20 µM in the assay with human leukemia NB4 cells and < 10 µM in assay [2].
Take `Cn1c(C(=O)Nc2cccc(OCc3ccncc3)c2)cc2sccc21` [Example 21, 4-methyl-N-[3-(4-pyridylmethoxy)phenyl]thieno[3,2-b]pyrrole-5-carboxamide]: the IC50 is < 10 µM in assay [1], < 20 µM with human leukemia NB4 cells and < 10 µM in assay [2].
Take `Cn1c(C(=O)Nc2ccccc2COc2ccc(OC[C@H]3CCNC3)cc2)cc2sccc21` [Example 11, 4-methyl-N-[2-[[4-[[(3S)-pyrrolidin-3-yl]methoxy]phenoxy]methyl]phenyl]thieno[3,2-b]pyrrole-5-carboxamide]: the results for the IC50 (in assay [1]; with human leukemia NB4 cells; in assay [2]) were < 10 µM, < 20 µM and < 10 µM, respectively.
